Laboratory results as given in patent publication US20250276952A1, “4-AMINOPHENYL-THIAZOLE DERIVATIVES AND METHODS OF USE THEREOF” (CYTEIR THERAPEUTICS, INC., priority 2022, published 2025).
Read-outs that look alike come from different tables or passages of the source.

Key:
human MCT1 = molecular target: T1, human MCT1 (Homo sapiens, UniProt P53985); experiment: MCT1 transport inhibition assay (TPGA uptake, LC-MS/MS); format: cell-based; details: MDCK-II cells overexpressing human MCT1, TPGA transport, read-out: BioIVT MCT1 Transporter IC50
T1 construct: expressed in transfected cells; host or cells: MDCK-II cells, transiently co-transfected for 48 h
T1 sequence (P53985 1-500): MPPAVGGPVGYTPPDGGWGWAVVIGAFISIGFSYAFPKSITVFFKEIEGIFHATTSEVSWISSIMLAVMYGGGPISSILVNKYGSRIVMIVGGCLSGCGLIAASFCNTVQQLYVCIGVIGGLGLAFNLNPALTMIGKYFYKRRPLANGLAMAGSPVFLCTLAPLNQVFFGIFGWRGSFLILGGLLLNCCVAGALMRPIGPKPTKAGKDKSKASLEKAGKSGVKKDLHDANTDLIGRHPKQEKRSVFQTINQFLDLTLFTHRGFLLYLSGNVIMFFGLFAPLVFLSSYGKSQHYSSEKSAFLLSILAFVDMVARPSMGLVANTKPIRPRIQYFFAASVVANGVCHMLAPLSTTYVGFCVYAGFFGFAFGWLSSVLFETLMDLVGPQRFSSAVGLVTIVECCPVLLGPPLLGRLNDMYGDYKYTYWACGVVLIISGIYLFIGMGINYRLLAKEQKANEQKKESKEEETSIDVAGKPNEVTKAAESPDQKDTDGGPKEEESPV
T1 sequence (P35613 140-385 partner limits assumed): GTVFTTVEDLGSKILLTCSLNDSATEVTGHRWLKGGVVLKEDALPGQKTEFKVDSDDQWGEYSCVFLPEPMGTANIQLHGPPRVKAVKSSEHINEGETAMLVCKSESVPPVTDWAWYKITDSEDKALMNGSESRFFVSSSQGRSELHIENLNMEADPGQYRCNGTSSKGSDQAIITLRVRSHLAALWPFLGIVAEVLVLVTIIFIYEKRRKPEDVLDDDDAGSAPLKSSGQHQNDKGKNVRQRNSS
Experimental: Inhibition of MCT1 transport after treatment with compounds of the present invention was measured in MDCK-II cells that overexpress human MCT1 by quantifying the transport of 2-Thiophene-glycoxylic acid (TPGA) into cells using LC-MS/MS.
MDCK-II cells are seeded at 60,000 cells per well in growth medium (low-glucose DMEM+10% FBS) in 96-well trans-well membrane plates, and incubated overnight (37° C., 5% CO2). Cells were co-transfected with mammalian expression constructs coding for MCT1 and CD147 at a 2:1 ratio or an empty vector control (GFP) and then incubated for 48 h (37° C., 5% CO2). Cells were washed 3 times with HBSS and cells were preincubated with inhibitors or vehicle control at room temperature in HBSS for 30 min with orbital shaking (60 rpm). HBSS was aspirated from the wells and replaced with HBSS with 25 mM Bis-Tris pH5.5+inhibitor or vehicle control+500 μM TPGA and incubated for 1 min at room temperature with orbital shaking (60 rpm). Both the apical and basolateral side of the trans-well insert were washed 4 times with ice-cold PBS. Cells were lysed with 60 μL of cell extraction solution, and the amount of TPGA in each well was quantified in triplicate by LC-MS/MS. The MCT1-mediated uptake rate was calculated using the following equation: […]
Percent inhibition for each concentration of inhibitor tested was calculated using the following equation: […]
Curves were fit to the calculated percent inhibition for each inhibitor, and the IC50 representing the concentration of inhibitor at which MCT1 is inhibited by 50% was calculated from this curve.

[1] = test system: Daudi (Burkitt Lymphoma) cells; experiment: Intracellular lactate accumulation assay (Lactate-Glo, 2 h treatment); format: cell-based; details: Homo sapiens, read-out: LactateGlo EC50
Experimental: Intracellular lactate accumulation after a 2 h treatment with compounds of the present invention was measured in Daudi (Burkitt Lymphoma) cells using the Lactate-Glo Assay (Promega).
Daudi cells were seeded at 7,500 cells per well in 150 μL of growth medium (RPMI-1640 with 2 mM GlutaMAX+10% FBS) in clear, 96-well, flat-bottom microplates, and incubated overnight (37° C., 5% CO2). Compounds of the present invention were added using an INTEGRA VIAFLO 96 (8 point, 3-fold serial dilution, top concentration 1, 10, or 20 μM, 0.4% final DMSO concentration). After a 2 h incubation (37° C., 5% CO2) microplates containing cells were washed twice with 150 μL ice-cold PBS, resuspended in 25 μL ice-cold PBS containing 12.5 μL 0.6N HCl, and placed on a microplate shaker for 5 min to lyse the cells. Following lysis, 12.5 μL 1M Trizma base was added to neutralize the suspension, and microplates were returned to the microplate shaker for 1 min. Plates were sealed and stored at −20° C. until further processing. On the day of the assay, microplates were thawed for 45 min at room temperate and […] Lactate Detection Reagent (prepared as specified by manufacturer) was added to each well. Microplates were placed on a plate shaker for 1 min and incubated at room temperature for 1 h. Luminescence was measured using a BioTek Cytation 5 Multi-Mode Reader. Curve fitting and calculation of EC50 was performed using GraphPad Prism.

SMILES | EC50 [1] [µM] | further results
Cc1[nH]nc(C(F)(F)F)c1Cc1sc2c(c1C(=O)N1C[C@](C)(O)CO1)c(=O)n(C)c(=O)n2C(C)C [AZD3965] | – | IC50 (human MCT1; numeric values): 0.19 µM
O=C(Nc1ccccc1C(=O)O)c1cc(S(=O)(=O)c2ccccc2)ccc1Cl [BAY8002] | – | IC50 (human MCT1; numeric values): 0.073 µM
COc1cc(NC(=O)OC(C)C)ccc1-c1cnc([C@H]2CC[C@H](NC(=O)OC(C)C)CC2)s1 [Example 14, isopropyl ((trans)-4-(5-(4-((isopropoxycarbonyl)amino)-2-methoxyphenyl)thiazol-2-yl)cyclohexyl)carbamate] | 0.15 to 1 | –
CC(C)OC(=O)N[C@H]1CC[C@H](c2ncc(-c3ccc(NC(=O)NCc4ccccc4)cc3N)s2)CC1 [Example 19, isopropyl ((trans)-4-(5-(2-amino-4-(3-benzylureido)phenyl)thiazol-2-yl)cyclohexyl)carbamate] | < 0.05 | –
CC(C)OC(=O)N[C@H]1CC[C@H](c2ncc(-c3ccc(NC(=O)NCc4ccccc4)cc3O)s2)CC1 [Example 20, isopropyl ((trans)-4-(5-(4-(3-benzylureido)-2-hydroxyphenyl)thiazol-2-yl)cyclohexyl)carbamate] | < 0.05 | –
CC(C)OC(=O)Nc1ccc(-c2cnc([C@H]3CC[C@H](NC(=O)OC(C)C)CC3)s2)c(F)c1 [Example 23, isopropyl ((trans)-4-(5-(2-fluoro-4-((isopropoxycarbonyl)amino)phenyl)thiazol-2-yl)cyclohexyl)carbamate] | > 5 | –
COCCn1c(-c2ccc(NC(=O)OC(C)C)cc2F)cnc1[C@H]1CC[C@H](NC(=O)OC(C)C)CC1 [Example 32, isopropyl ((trans)-4-(5-(2-fluoro-4-((isopropoxycarbonyl)amino)phenyl)-1-(2-methoxyethyl)-1H-imidazol-2-yl)cyclohexyl)carbamate] | – | IC50 (human MCT1; class symbols): > 5 µM
